This is an account of results in PubChem BioAssay (NCI).

What all share (experiment): DTP human tumour cell line panel, 48 h
The subject of experiment [1] is MDA-MB-435.
For experiment [2], the system named is SNB-19 CNS.
For experiment [3], the system named is SK-MEL-5 melanoma.
For experiment [4], the system named is SF-268 CNS.
The subject of experiment [5] is LOX IMVI melanoma.
Experiment [6] has as its system OVCAR-4 ovarian.
The subject of experiment [7] is MOLT-4 leukemia.
The subject of experiment [8] is EKVX NSCLC.
Experiment [9] relates to DU-145 prostate.
Experiment [10] deals with NCI/ADR-RES ovarian.

“And” between values parts separate entries of the source, which are not always exact repeats. Equal values may be shown once.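 Cultured in 96-well plates, cells were exposed to test compound for 48 hours across five concentrations. The concentration for 50% growth inhibition is given as GI50. The concentration for full growth arrest is given as TGI.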

As usually defined, the TGI is the concentration giving total growth inhibition. Read a low TGI as more potent growth arrest. By GI50 is commonly meant the concentration at which growth is held to half of that of the control.

In the case of `COC(=O)CC1C2(C)C3=C(C)C(c4ccoc4)CC3OC2C2OC(=O)C3(C)C=CC(=O)C1(C)C23` (stereo not given), the TGI in [1] amounted to 2.69 µM; in experiment [2], 7.1 µM; in experiment [3] it was 3.03 µM; in [4], 7.62 µM; in [5], 2.3 µM; in experiment [6], 10.1 µM. Also, the TGI stood at 1.77 µM in experiment [7], 3.89 µM in experiment [8], 2.06 µM in experiment [9] and 14.1 µM in experiment [10].
For the compound `NC(CP(=O)(O)O)C(=O)O` (stereo not given), the TGI in experiment [1], in experiment [2], in experiment [3], in experiment [4], in [5] and in experiment [6] was above 100 µM each time. Besides, the TGI in experiment [7], in experiment [8], in experiment [9] and in experiment [10] was above 100 µM throughout.
With `CCOC(=O)C1=C(C)NC(C)=C(C(=O)OCCNC(=O)c2ccc(N=[N+]=[N-])cc2)C1c1ccccc1C(F)(F)F` (stereo not given), the TGI in experiment [1] is 20.5 µM; in experiment [2], 21.5 µM; in experiment [3], 12.7 µM; in [4] it was 21.5 µM; in experiment [5], above 31.6 µM; in experiment [6], 21.5 µM. In addition, the TGI is 13.5 µM in [7], 21.5 µM in experiment [8], 21.5 µM in [9] and 21.5 µM in experiment [10].
In the case of `CS(=O)(=O)c1ccc2c(c1)C(=O)c1c-2n(CCCBr)c(=O)c2cc([N+](=O)[O-])ccc12`, the GI50 was 82.6 µM in experiment [1]; 6.03 µM in experiment [2]; 1.91 µM in experiment [3]; 9.59 µM in experiment [4]; 5.77 µM in [5]; 47.4 µM in [6]. The GI50 was 1.94 µM in [7], above 100 µM in experiment [8], 6.25 µM in experiment [9] and 27.3 µM in experiment [10]. The TGI in [1] was above 100 µM; in experiment [2] it was above 100 µM; in experiment [3], 15.8 µM; in [4] it was above 100 µM; in experiment [5] it was above 100 µM; in experiment [6], above 100 µM. Also, the TGI in [7], in [8], in experiment [9] and in experiment [10] was above 100 µM in each case.
With `C=C[C@H]1CN2CCc3c([nH]c4c([C@@H]5CCCN5C)c(O)ccc34)[C@@H]2C[C@@H]1C[C@H]1c2[nH]c3ccccc3c2CCN1C`, the GI50 in experiment [1] is 1.71 µM; in [2], 1.09 µM; in [7], 0.412 µM. The TGI is 2.99 µM and 2.95 µM and 3.15 µM in experiment [1]; 3.5 µM and 2.33 µM and 3.2 µM in experiment [2]; 3.02 µM and 3.04 µM in [3]; 3.03 µM and 3.42 µM in experiment [4]; 3.03 µM and 2.86 µM in [5]; 3.2 µM in [6]. Besides, the TGI in experiment [8] is 2.94 µM and 3.07 µM; in experiment [9] it was 2.88 µM and 3.16 µM; in experiment [10], 3.34 µM and 3.52 µM.
`Cc1cc(I)cc(CNCCN2CCOCC2)c1O`: the GI50 in experiment [1] was above 100 µM; in experiment [2], above 100 µM; in experiment [3], 67.1 µM; in experiment [4], 93.2 µM; in [5] it was above 100 µM; in experiment [6], above 100 µM. For the same compound, the GI50 was above 100 µM in experiment [7], 24.3 µM in experiment [8], 26.3 µM in experiment [9] and 12.5 µM in experiment [10]. Further, the TGI in experiment [1], in [2], in [3], in experiment [4], in experiment [5] and in [6] was above 100 µM throughout. The concentration for total growth inhibition (TGI) in [7], in experiment [8], in experiment [9] and in experiment [10] was above 100 µM in each case.
For `CN(C)c1ccc(/C=C(\C#N)c2ccccc2)cc1`, the GI50 in experiment [1] is 0.0424 µM and 0.192 µM and 0.13 µM; in experiment [2] it was 0.481 µM and 0.68 µM and 0.92 µM; in experiment [3], 0.398 µM and 0.45 µM and 0.345 µM; in experiment [5] it was 0.777 µM and 0.605 µM and 0.404 µM; in [6], 3.18 µM and 2.42 µM and 1.75 µM; in experiment [7] it was 0.372 µM and 0.439 µM and 0.545 µM. The GI50 in [8] was 0.499 µM and 1.43 µM and 1.78 µM; in experiment [9], 0.617 µM and 1.51 µM and 1.48 µM; in [10], 0.348 µM and 0.395 µM and 0.324 µM. In addition, the TGI in [2] is above 100 µM; in [3], 26.3 µM and 18 µM and 17.8 µM; in experiment [4], above 100 µM; in [5], > 100 µM and 43.1 µM; in experiment [6], above 100 µM; in experiment [7], above 100 µM. Also, the TGI is above 100 µM in experiment [8]; 22.3 µM and > 100 µM in [9]; 49.9 µM and > 100 µM and 74.1 µM in experiment [10].
Turning to `CC(C)n1nc(C#Cc2cccc(O)c2)c2c(N)ncnc21`, the GI50 in experiment [1] is 0.882 µM and 0.655 µM; in [2], 3.02 µM and 2.16 µM; in [3], 1.72 µM and 0.887 µM; in [4], 1.37 µM and 1.09 µM; in [5], 0.685 µM and 0.316 µM; in experiment [6], 1.34 µM and 1.74 µM. Also, the GI50 in experiment [7] was 1.2 µM and 0.412 µM; in experiment [8], 9.41 µM and 7.49 µM; in experiment [9] it was 1.67 µM and 1.51 µM; in experiment [10], 2.38 µM and 1.87 µM. Also, the TGI in experiment [1] is 5.5 µM and 5.03 µM; in experiment [2], 21.4 µM and 14.4 µM; in experiment [3], 6.39 µM and 2.67 µM; in [4], 6.71 µM and 6.05 µM; in experiment [5] it was 2.64 µM and 1.19 µM; in experiment [6], 7.4 µM and 6.17 µM. In addition, the TGI in experiment [7] was 9.4 µM and 4.7 µM; in experiment [8], 29 µM and 25.7 µM; in experiment [9] it was 14.5 µM and 11.1 µM; in [10], 24.7 µM and 7.09 µM.
As to `Cc1cc(O[C@@H]2O[C@@H](C)[C@H](O)[C@@H](O)[C@H]2O)c2c3c(c(O[C@@H]4O[C@@H](C)[C@H](O)[C@@H](O)[C@H]4O)cc2c1)C(=O)c1c(O)cccc1C3=O`, the GI50 in [1], in experiment [2], in experiment [3], in [4], in [5] and in experiment [6] was above 30 µM throughout. Further, the GI50 in [7], in experiment [8], in experiment [9] and in [10] was above 30 µM in each case. The TGI in experiment [1], in experiment [2], in [3], in [4], in experiment [5] and in experiment [6] was above 30 µM each time. Moreover, the TGI in experiment [7], in [8], in [9] and in [10] was above 30 µM throughout.
